30 molecules from patent US9168259B2 (GRÜNENTHAL GMBH, priority 2010, dated 2015) can be followed below.

Each structure is given as a SMILES string.

The experiment addresses T1, KCNQ2/3 channels (Homo sapiens, UniProt O43525+O43526).
T1 construct: expressed in transfected cells
As to the kind of experiment: Fluorescence assay using a voltage sensitive dye (fluorimetry). The class given is cell-based. The conditions noted are these: CHO-K1 cells expressing KCNQ2/3; for Emax: CHO-K1, plateau effect relative to saturated retigabine (50 μM) = 100%, negative values = antagonistic, read-out: Fluorimetry % efficacy (retigabine = 100%); for EC50: IC50 where % efficacy is negative, read-out: Fluorimetry EC50/IC50.

T1 sequence (O43526 whole entry): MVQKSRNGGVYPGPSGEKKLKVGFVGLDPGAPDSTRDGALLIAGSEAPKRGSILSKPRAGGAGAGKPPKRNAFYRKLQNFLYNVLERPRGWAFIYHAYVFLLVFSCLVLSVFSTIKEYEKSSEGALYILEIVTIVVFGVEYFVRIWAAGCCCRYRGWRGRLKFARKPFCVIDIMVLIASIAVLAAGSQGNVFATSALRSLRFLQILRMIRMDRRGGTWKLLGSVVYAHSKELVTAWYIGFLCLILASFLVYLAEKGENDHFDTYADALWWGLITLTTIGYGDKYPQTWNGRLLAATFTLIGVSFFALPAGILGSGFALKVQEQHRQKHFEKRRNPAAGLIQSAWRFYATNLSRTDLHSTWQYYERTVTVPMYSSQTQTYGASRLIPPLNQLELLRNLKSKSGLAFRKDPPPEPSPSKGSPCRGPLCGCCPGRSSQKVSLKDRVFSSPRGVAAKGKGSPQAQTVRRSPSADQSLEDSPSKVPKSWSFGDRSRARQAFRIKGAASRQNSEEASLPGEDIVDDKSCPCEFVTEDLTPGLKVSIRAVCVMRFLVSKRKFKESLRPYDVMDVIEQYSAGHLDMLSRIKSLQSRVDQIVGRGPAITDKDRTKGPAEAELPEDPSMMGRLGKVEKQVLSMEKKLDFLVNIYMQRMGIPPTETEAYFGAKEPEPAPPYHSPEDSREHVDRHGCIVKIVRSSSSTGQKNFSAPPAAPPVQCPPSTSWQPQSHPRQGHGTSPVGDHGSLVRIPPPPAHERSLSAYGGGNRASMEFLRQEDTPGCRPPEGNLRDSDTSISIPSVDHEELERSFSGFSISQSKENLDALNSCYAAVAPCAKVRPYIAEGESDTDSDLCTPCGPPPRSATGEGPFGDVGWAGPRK
T1 sequence (O43525 whole entry): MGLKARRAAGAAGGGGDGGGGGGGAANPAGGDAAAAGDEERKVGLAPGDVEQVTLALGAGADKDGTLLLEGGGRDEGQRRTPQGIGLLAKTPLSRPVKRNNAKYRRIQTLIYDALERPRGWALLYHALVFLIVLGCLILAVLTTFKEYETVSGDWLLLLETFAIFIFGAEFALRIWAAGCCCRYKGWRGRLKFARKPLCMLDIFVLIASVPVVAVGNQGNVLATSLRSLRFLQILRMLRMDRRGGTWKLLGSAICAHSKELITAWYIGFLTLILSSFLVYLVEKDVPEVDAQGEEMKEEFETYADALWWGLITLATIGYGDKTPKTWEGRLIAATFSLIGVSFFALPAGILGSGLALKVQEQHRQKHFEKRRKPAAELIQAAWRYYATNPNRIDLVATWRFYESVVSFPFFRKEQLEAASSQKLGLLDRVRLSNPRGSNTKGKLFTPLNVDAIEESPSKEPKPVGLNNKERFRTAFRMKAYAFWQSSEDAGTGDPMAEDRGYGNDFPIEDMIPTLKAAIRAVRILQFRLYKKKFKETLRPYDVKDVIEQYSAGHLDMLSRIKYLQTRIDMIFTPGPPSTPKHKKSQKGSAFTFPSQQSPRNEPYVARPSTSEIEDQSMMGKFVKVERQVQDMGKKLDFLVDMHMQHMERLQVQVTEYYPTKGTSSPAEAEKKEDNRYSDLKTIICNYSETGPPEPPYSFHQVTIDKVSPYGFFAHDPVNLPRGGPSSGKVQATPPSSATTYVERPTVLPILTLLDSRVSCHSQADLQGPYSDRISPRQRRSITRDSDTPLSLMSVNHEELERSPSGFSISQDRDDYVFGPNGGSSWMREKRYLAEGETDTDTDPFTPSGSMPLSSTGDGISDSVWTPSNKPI

`CCSc1nc(N(C)C(C)=O)cc(C)c1C(=O)NCc1cccc(F)c1` [Example 123, 6-(Acetyl-methyl-amino)-2-ethylsulfanyl-N-[(3-fluorophenyl)-methyl]-4-methyl-pyridine-3-carboxylic acid amide]: the Emax was determined as 67%.

`CCSc1nc(N2CCOCC2)cc(C)c1C(=O)NCc1ccc(Cl)cc1` [Example 124, N-[(4-Chlorophenyl)-methyl]-2-ethylsulfanyl-4-methyl-6-morpholin-4-yl-pyridine-3-carboxylic acid amide]: the Emax is 149% and the EC50 was found to be 82 nM.

For the molecule `CCSc1nc(N2CCOCC2)cc(C)c1C(=O)NCc1cccc(Cl)c1` [Example 125, N-[(3-Chlorophenyl)-methyl]-2-ethylsulfanyl-4-methyl-6-morpholin-4-yl-pyridine-3-carboxylic acid amide], the Emax was 152% and the EC50 was determined as 87 nM.

In the case of `CCSc1nc(N(CCOC)CCOC)cc(C)c1C(=O)NCc1cccc(F)c1` [Example 126, 6-[Bis(2-methoxy-ethyl)-amino]-2-ethylsulfanyl-N-[(3-fluorophenyl)-methyl]-4-methyl-pyridine-3-carboxylic acid amide], the Emax was determined as 145% and the EC50 is 2090 nM.

As to `CCN(C)c1nc(N2CCOCC2)cc(C)c1C(=O)NCc1cccc(F)c1` [Example 127, 2-(Ethyl-methyl-amino)-N-[(3-fluorophenyl)-methyl]-4-methyl-6-morpholin-4-yl-pyridine-3-carboxylic acid amide], the Emax came to 238% and the EC50 turned out to be 385 nM.

With `CCSc1nc(N(C)CCCOC)cc(C)c1C(=O)NCc1cccc(F)c1` [Example 128, 2-Ethylsulfanyl-N-[(3-fluorophenyl)-methyl]-6-(3-methoxy-propyl-methyl-amino)-4-methyl-pyridine-3-carboxylic acid amide], the Emax stood at 142% and the EC50 is 785 nM.

On to `CCSc1nc(N2CCOCC2)cc(C)c1C(=O)NCCCc1ccccc1F` [Example 129, 2-Ethylsulfanyl-N-[3-(2-fluorophenyl)-propyl]-4-methyl-6-morpholin-4-yl-pyridine-3-carboxylic acid amide], for which the Emax came out at 206% and the EC50 was determined as 221 nM.

`CCSc1nc(N2CCOCC2)cc(C)c1C(=O)NCc1cccc(OC(F)(F)F)c1` [Example 130, 2-Ethylsulfanyl-4-methyl-6-morpholin-4-yl-N-[[3-(trifluoromethyloxy)-phenyl]methyl]-pyridine-3-carboxylic acid amide]: the Emax was 148% and the EC50 turned out to be 74 nM.

In the case of `CCSc1nc(N2CCOCC2)cc(C)c1C(=O)NCc1cccc(COC)c1` [Example 131, 2-Ethylsulfanyl-N-[[3-(methoxymethyl)-phenyl]-methyl]-4-methyl-6-morpholin-4-yl-pyridine-3-carboxylic acid amide], the Emax was 137% and the EC50 worked out at 1250 nM.

With `CCOc1nc(N2CCOCC2)cc(C)c1C(=O)NCc1ccc(C(F)(F)F)cc1` [Example 132, 2-Ethoxy-4-methyl-6-morpholin-4-yl-N-[[4-(trifluoromethyl)-phenyl]-methyl]pyridine-3-carboxylic acid amide], the Emax stood at 122% and the EC50 stood at 110 nM.

For `CCOc1nc(N2CCOCC2)cc(C)c1C(=O)NCCCC(F)(F)F` [Example 133, 2-Ethoxy-4-methyl-6-morpholin-4-yl-N-(4,4,4-trifluoro-butyl)-pyridine-3-carboxylic acid amide], the Emax was 235% and the EC50 is 392 nM.

Take `CCSc1nc(N2CCOCC2)cc(C)c1C(=O)NCc1ccc2c(c1)OCO2` [Example 134, N-(1,3-Benzodioxol-5-yl-methyl)-2-ethylsulfanyl-4-methyl-6-morpholin-4-yl-pyridine-3-carboxylic acid amide]: the Emax came to 159% and the EC50 was found to be 1140 nM.

As for `CCSc1nc(N2CCOCC2)cc(C)c1C(=O)NCc1ccc(C(F)(F)F)cc1F` [Example 135, 2-Ethylsulfanyl-N-[[2-fluoro-4-(trifluoromethyl)-phenyl]-methyl]-4-methyl-6-morpholin-4-yl-pyridine-3-carboxylic acid amide], the Emax was determined as 43% and the EC50 amounted to 54 nM.

For `CCSc1nc(N2CCCCCC2)cc(C)c1C(=O)NCc1cccc(F)c1` [Example 136, 6-(Azepan-1-yl)-2-ethylsulfanyl-N-[(3-fluorophenyl)-methyl]-4-methyl-pyridine-3-carboxylic acid amide], the Emax worked out at 171% and the EC50 was 108 nM.

Regarding `CCSc1nc(N2CCOCC2)cc(C)c1C(=O)NCc1ccc(OC)cc1` [Example 137, 2-Ethylsulfanyl-N-[(4-methoxyphenyl)-methyl]-4-methyl-6-morpholin-4-yl-pyridine-3-carboxylic acid amide], the Emax worked out at 151% and the EC50 was determined as 1070 nM.

With `CCSc1nc(N2CCO[C@@H](C)C2)cc(C)c1C(=O)NCc1cccc(F)c1` [Example 138, 2-Ethylsulfanyl-N-[(3-fluorophenyl)-methyl]-4-methyl-6-[(2S)-2-methyl-morpholin-4-yl]-pyridine-3-carboxylic acid amide], the Emax was 125% and the EC50 is 170 nM.

In the case of `CCSc1nc(N2CCO[C@H](C)C2)cc(C)c1C(=O)NCc1cccc(F)c1` [Example 139, 2-Ethylsulfanyl-N-[(3-fluorophenyl)-methyl]-4-methyl-6-[(2R)-2-methyl-morpholin-4-yl]-pyridine-3-carboxylic acid amide], the Emax amounted to 146% and the EC50 came to 770 nM.

In the case of `COc1nc(N2CCOCC2)cc(C)c1C(=O)NCCCC(F)(F)F` [Example 140, 2-Methoxy-4-methyl-6-morpholin-4-yl-N-(4,4,4-trifluoro-butyl)-pyridine-3-carboxylic acid amide], the Emax is 227% and the EC50 was 1120 nM.

`CCSc1nc(N2CCOCC2)cc(C)c1C(=O)NCCCC1CC1` [Example 141, N-(3-Cyclopropyl-propyl)-2-ethylsulfanyl-4-methyl-6-morpholin-4-yl-pyridine-3-carboxylic acid amide]: the Emax stood at 167% and the EC50 was 242 nM.

Consider `CCSc1nc(N2CCOCC2)cc(C)c1C(=O)NCc1ccc(C(F)(F)F)c(F)c1` [Example 142, 2-Ethylsulfanyl-N-[[3-fluoro-4-(trifluoromethyl)-phenyl]-methyl]-4-methyl-6-morpholin-4-yl-pyridine-3-carboxylic acid amide], for which the Emax was determined as 125% and the EC50 came to 38 nM.

On to `CCSc1nc(N2CCNC(=O)C2)cc(C)c1C(=O)NCc1cccc(F)c1` [Example 143, 2-Ethylsulfanyl-N-[(3-fluorophenyl)-methyl]-4-methyl-6-(3-oxo-piperazin-1-yl)-pyridine-3-carboxylic acid amide], for which the Emax amounted to 28%.

Take `CCSc1nc(N2CCN(C(C)=O)CC2)cc(C)c1C(=O)NCc1cccc(F)c1` [Example 144, 6-(4-Acetyl-piperazin-1-yl)-2-ethylsulfanyl-N-[(3-fluorophenyl)-methyl]-4-methyl-pyridine-3-carboxylic acid amide]: the Emax was 59%.

With `CCSc1nc(N2CCOCC2)cc(C)c1C(=O)NCc1ccc(C#N)cc1` [Example 145, N-[(4-Cyano-phenyl)-methyl]-2-ethylsulfanyl-4-methyl-6-morpholin-4-yl-pyridine-3-carboxylic acid amide], the Emax is 145% and the EC50 was 673 nM.

Turning to `CCSc1nc(N2CCOCC2)cc(C)c1C(=O)NCc1ccc(COC)cc1` [Example 146, 2-Ethylsulfanyl-N-[[4-(methoxymethyl)-phenyl]-methyl]-4-methyl-6-morpholin-4-yl-pyridine-3-carboxylic acid amide], the Emax came to 159% and the EC50 was determined as 2490 nM.

With `CCSc1nc(N2CCOCC2)cc(C)c1C(=O)NCc1ccc(COC)c(F)c1` [Example 147, 2-Ethylsulfanyl-N-[[3-fluoro-4-(methoxymethyl)-phenyl]-methyl]-4-methyl-6-morpholin-4-yl-pyridine-3-carboxylic acid amide], the Emax was determined as 153% and the EC50 amounted to 530 nM.

`CCSc1nc(N2CCOCC2)cc(C)c1C(=O)NCc1ccc(N(C)C)cc1` [Example 148, N-[(4-Dimethylaminophenyl)-methyl]-2-ethylsulfanyl-4-methyl-6-morpholin-4-yl-pyridine-3-carboxylic acid amide]: the Emax came out at 105% and the EC50 is 3620 nM.

On to `CCSc1nc(N2CCOCC2)cc(C)c1C(=O)NCc1ccc(F)c(COC)c1` [Example 149, 2-Ethylsulfanyl-N-[[4-fluoro-3-(methoxymethyl)-phenyl]-methyl]-4-methyl-6-morpholin-4-yl-pyridine-3-carboxylic acid amide], for which the Emax came to 136% and the EC50 was found to be 451 nM.

On to `CCSc1nc(N2CCN(C)C(=O)C2)cc(C)c1C(=O)NCc1cccc(F)c1` [Example 150, 2-Ethylsulfanyl-N-[(3-fluorophenyl)-methyl]-4-methyl-6-(4-methyl-3-oxo-piperazin-1-yl)-pyridine-3-carboxylic acid amide], for which the Emax came to 98% and the EC50 was 9650 nM.

On to `CCSc1nc(N2CC3(COC3)C2)cc(C)c1C(=O)NCc1cccc(F)c1` [Example 151, 2-Ethylsulfanyl-N-[(3-fluorophenyl)-methyl]-4-methyl-6-(6-oxa-2-azaspiro[3.3]heptan-2-yl)-pyridine-3-carboxylic acid amide], for which the Emax stood at 92% and the EC50 turned out to be 12100 nM.

Regarding `CSc1nc(N2CCOCC2)cc(C)c1C(=O)NCCCC(C)(C)C` [Example 152, N-(4,4-Dimethyl-pentyl)-4-methyl-2-methylsulfanyl-6-morpholin-4-yl-pyridine-3-carboxylic acid amide], the Emax is 249% and the EC50 was 63 nM.
